The target in experiment [1] is T1, Aβ1–42 (amyloid β peptide, 42 residues) (Homo sapiens, UniProt P05067).
T1 construct: gene APP; wild-type 42-residue peptide Abeta 1-42, cut from amyloid-beta precursor protein (APP770 residues 672-713); lyophilized, chloride salt, purchased from Calbiochem; non-fibrillated at start, aggregating during the assay
The experiment in a line: Thioflavin T fluorescence fibrillization assay. In kind it is biochemical.

In experiment [2] the target is T1, Aβ1–42 (amyloid β peptide, 42 residues). Briefly: Thioflavin T fluorescence fibrillization assay. The format is biochemical. This is another data set of the same source.

Structures are written as SMILES.

What is called IC50 is the concentration at which inhibition is half-maximal. Lower therefore signals inhibition by little substance. By inhibition is commonly meant how much of the control response was suppressed.

T1 sequence (P05067 672-713): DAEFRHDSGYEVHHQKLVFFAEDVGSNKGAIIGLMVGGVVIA

Compound `CC(C(=O)Nc1ccc(C(C)(C)C)cc1)N1CCCC1` (stereo not drawn) [compound 5] had an IC50 in experiment [1] of 1.28 µM.

As to `COc1ccc(C2CNC(=O)C2)cc1OC1CCCC1` (stereo not drawn) [compound 14], in experiment [2], the inhibition at 100 µM was approximately 50%.

With `O=C(COc1ccccc1)C1CCCN1` (stereo not drawn) [compound 8], the IC50 in experiment [1] came to 34.4 µM.

(Values after paper PMC4501547, “Virtual and In Vitro Screens Reveal a Potential Pharmacophore that Avoids the Fibrillization of Aβ1–42” (PLoS ONE, 2015).)
